Measurements from patent US6855730B2, “3-methylidenyl-2-indolinone modulators of protein kinase” (Sugen, Inc., priority 1998, dated 2005).
Like-named read-outs stand apart in the source and are kept apart here.

Tests used:
[1] = target: Myc-GyrB-FGFR fusion protein (Homo sapiens, UniProt P11362); assay: Biochemical FGFR assay (ELISA)
Method: This assay measures in vitro kinase activity of the Myc-GyrB-FGFR fusion protein using ELISA.
Materials and Reagents • 1. HNTG
PBS (Dulbecco's Phosphate-Buffered Saline, Gibco Catalog # 450-1300EB). • 3. Blocking Buffer. • 4. Kinase Buffer.
Working solution: 100 mM in ethanol. • 6.
ABTS Solution. • 10. Hydrogen peroxide 30% solution ( Fisher Catalog # H325). • 11. ABTS/H2O2. • 12. 0.2 M HCl. • 13.
Prepare 1.0 mM solution in MilliQ H2O, adjust pH to 7.2 with HCl. • 14.
Prepare 5 M solution in MilliQ H2O. • 15. MgCl, (Fisher Cat. No. M33-500).
Prepare 1 M solution in MilliQ H2O. • 16. HEPES (Fisher Cat. No. BP310-500).
Prepare 1 M solution in MilliQ H2O, adjust pH to 7.5, sterile filter. • 17. TBST Buffer. • 18. Sodium Carbonate Buffer (Fisher Cat. No. S495).
Prepare 0.1 M solution in MilliQ H2O, adjust pH to 9.6 with NaOH, filter. • 19. Dithiothreitol (DTT, Fisher Cat. No. BP172-25).
Prepare 0.5 mM working solution in MilliQ H2O just prior to-use. Store at −20° C. until used, discard any leftover. • 20. MnCl2. • 21. Triton X-100. • 22. Goat α-Rabbit IgG (Cappel). • 23. Affinity purified Rabbit α GST GyrB (Biochemistry Lab. SUGEN, Inc.).
All of the following steps are conducted at room temperature unless otherwise indicated. • 1. Coat Corning 96-well ELISA plates with 2 μg Goat α-Rabbit antibody per well in Carbonate Buffer such that total well volume is 100 μl. Store overnight at 40° C. • 2. Remove unbound Goat a-Rabbit antibody by inverting plate to remove liquid. Pat plate on a paper towel to remove excess liquid and bubbles • 3.. Add 150 μl Blocking Buffer (5% Low Fat Milk in PBS) to each well. Incubate while shaking on a micro-titer plate shaker for 30 min. • 4. Wash 4× with TBST. Pat plate on a paper towel to remove excess liquid and bubbles. • 5. Add 0.5 μg Rabbit α-GyrB antibody per well. Dilute antibody in DPBS to a final volume of 100 μl per well. Incubate with shaking on a micro-titer plate shaker at room temperature for 1 hour. • 6. Wash 4× with TBST as described in step 4. • 7. Add 2 μg COS/FGFR cell lysate (Myc-GyrB-FGFR source) in HNTG to each well to give a final volume of 100 μl per well. Incubate with shaking on a micro-titer plate shaker for 1 hour. • 8. Wash 4× with TBST as described in step 4. • 9. Add 80 μl of 1× kinase buffer per well. • 10. […] Transfer 10 μ l of diluted test compound solution and control wells from polypropylene plate wells to the corresponding ELISA plate wells, incubate with shaking on a micro-titer plate shaker for 20 minutes. • 12. Add 10 μl of 70 μM ATP diluted in kinase buffer to positive control and test wells (Final ATP concentration is 7 EM/well). Add 10 μl 1× kinase buffer to negative control wells. Incubate with shaking on a micro-titer plate shaker for 15 min. • 13. Stop kinase reaction by adding 5 μl 0.5 M EDTA to all wells. • 14. Wash 4× with TBST as described in step 4. • 15. Add 100 μl biotin conjugated α-phosphotyrosine mab (b4G10) diluted in TBST to each well. Incubate with shaking on a micro-titer plate shaker for 30 minutes. • 16. Prepare Vectastain ABC reagent. […] Mix by inverting tube several times. Add 1 drop reagent B and mix again. • 17. Wash 4× with TBST as described in step 4. • 18. Add 100 μl ABC HRP reagent to each well. Incubate with shaking on a micro-titer plate shaker for 30 minutes. • 19. Wash 4× with TBST as described in step 4. • 20. Add 100 μl of ABTS/H2O2 solution to each well. • 22. Incubate 5 to 15 minutes with shaking. Remove any bubbles. • 23. If necessary stop reaction by adding 1 00 μl of 0.2M HCl/well. • 24.

flkGST = target: T1, flkGST (Homo sapiens, UniProt P35968); assay: bio flkGST assay; format: biochemical
T1 construct: GST

human flk-1 = target: T2, human flk-1 (Homo sapiens, UniProt P35968); assay: Biochemical FLK-1 assay (flk-1 autophosphorylation ELISA); details: read-out: bio FLK1 IC50 (μM) % if inhibition at 100
T2 construct: host or cells: Flk-1/NIH cells (NIH fibroblasts)
Method: This assay evaluates flk-1 autophosphorylation activity in vitro using ELISA.
Materials And Reagents • 1. 15 cm tissue culture dishes • 2. Flk-1/NIH cells: NIH fibroblast line over-expressing human flk-1clone 3 (SUGEN, Inc., obtained from MPI, Martinsried, Germany). • 3. Growth medium: DMEM plus heat inactivated 10% FBS and 2 mM Glutamine (Gibco-BRL). • 4. Starvation medium: DMEM plus 0.5% heat-inactivated FBS, 2 mM Glutamine (Gibco-BRL). • 5. […] L4 or E38 monoclonal antibody specific for flk-1, Purified by Protein-A agarose affinity chromatography (SUGEN, Inc.). • 7. PBS (Dulbecco's Phosphate-Buffered Saline) Gibco Cat. No. 450-1300EB). • 8. HNTG (see BIOCHEMICAL FGFR for preparation). • 9. Pierce BCA protein determination kit. • 10. Blocking buffer • 11. TBST (pH 7.0) • 12. Kinase Buffer • 13. Kinase Stop Solution: 200 mM EDTA. • 14. […] AB kit (Vector Laboratories Cat. No. PK 4000). • 16. DMSO • 17. NUNC 96-well V bottom polypropylene plates (Applied Scientific Cat. No. AS-72092). • 18. Turbo-TMB (Pierce). • 19. Turbo-TMB stop solution: 1 M H2SO4. • 20. ATP (Sigma Cat. No. A-7699). • 21. 20% DMSO in TBS (pH 7.0). Procedure
Cell Growth and Lysate Preparation. • 1. Seed cell into growth medium and grow for 2-3 days to 90-100% confluency at 37° C. and 5% CO2.
2. Remove the medium and wash the cells twice with PBS. Lyse with HNTG lysis buffer. Collect all lysates and vortex mix them for 20-30 seconds. • 3. Remove insoluble material by centrifugation (5-10 min at about 10,000 ×g). • 4. Determine the protein concentration using BCA kit. • 5. Partition lysate into 1 mg aliquots, store at −80° C.
Assay Procedure • 1. Coat Corning 96-well ELISA plates with 2 μg/well purified L4 (or E 38) in 100 μl of PBS. Store overnight at […] • 2. Remove unbound proteins from wells by inverting the plate to remove the liquid. Wash one time with dH2O, pat plate on paper towel to remove excess liquid. • 3. Block plates with 150 μl blocking buffer per well. Incubate for 45-60 minutes with shaking at 4° C. • 4. Remove the blocking buffer and wash the ELISA plate three times with dH2O and one time with TBST. Pat plate on paper towel to remove excess liquid. • 5. Dilute lysate in PBS to give final concentration of 50 μg/100 μl. Add 100 μl of diluted lysate to each well. Incubate with shaking at 4° C. overnight. • 6. Remove unbound proteins from wells by inverting the plate. Wash as in step 4. • 7. Add 80 μl of kinase buffer to wells (90 μl to negative control wells). • 8. Dilute test compounds (normally 10-fold) into wells of a polypropylene plate containing 20% DMSO in TBS. • 9. Add 10 μl of the diluted compounds to the ELISA wells containing immobilized flk-1 and shake. Control wells receive no compounds. • 10. From stock 1 mM ATP, prepare 0.3 mM ATP solution in dH2O (alternatively, kinase buffer may be used). • 11. Add 10 μl of 0.3 mM ATP to all wells except the negative controls. Incubate for 60 min. at room temperature with shaking. • 12. After 1 hr stop the kinase reaction by adding 11 μl 200 mM EDTA. Shake for 1-2 min. • 13. Wash the ELISA plate 4 times with dH2O and twice with TBST. • 14. Add 100 μl of 1:5000 biotinylated 4G10:TBST to all wells. Incubate 45 min with shaking at room temperature. • 15. While the above is incubating, add 50 μl of solutions A & B from the ABC kit to 10 ml of TBST. These solutions must be combined approximately 30 min prior to use. • 16. Wash plates as in step 4. • 17. Add 100 μl of the preformed A & B complex to all wells. Incubate 30 min with shaking at room temperature. • 18. Wash plates as in step 4. • 19. Add 100 μl turbo-TMB. Shake at room temperature for 10-15 min. • 20. When the color in the positive control wells reaches an absorbance of about 0.35-0.4, stop the reaction with 100 μl of turbo-TMB stop solution. • 21. Read plates on Dynatech MR7000 ELISA reader, test filter: 450 nM, reference filter: 410 nM.

pyk2 = pyk2 (Homo sapiens, UniProt Q14289); assay: bio pyk2 assay; format: biochemical
Sequence of pyk2 (Q14289 whole entry, species assumed): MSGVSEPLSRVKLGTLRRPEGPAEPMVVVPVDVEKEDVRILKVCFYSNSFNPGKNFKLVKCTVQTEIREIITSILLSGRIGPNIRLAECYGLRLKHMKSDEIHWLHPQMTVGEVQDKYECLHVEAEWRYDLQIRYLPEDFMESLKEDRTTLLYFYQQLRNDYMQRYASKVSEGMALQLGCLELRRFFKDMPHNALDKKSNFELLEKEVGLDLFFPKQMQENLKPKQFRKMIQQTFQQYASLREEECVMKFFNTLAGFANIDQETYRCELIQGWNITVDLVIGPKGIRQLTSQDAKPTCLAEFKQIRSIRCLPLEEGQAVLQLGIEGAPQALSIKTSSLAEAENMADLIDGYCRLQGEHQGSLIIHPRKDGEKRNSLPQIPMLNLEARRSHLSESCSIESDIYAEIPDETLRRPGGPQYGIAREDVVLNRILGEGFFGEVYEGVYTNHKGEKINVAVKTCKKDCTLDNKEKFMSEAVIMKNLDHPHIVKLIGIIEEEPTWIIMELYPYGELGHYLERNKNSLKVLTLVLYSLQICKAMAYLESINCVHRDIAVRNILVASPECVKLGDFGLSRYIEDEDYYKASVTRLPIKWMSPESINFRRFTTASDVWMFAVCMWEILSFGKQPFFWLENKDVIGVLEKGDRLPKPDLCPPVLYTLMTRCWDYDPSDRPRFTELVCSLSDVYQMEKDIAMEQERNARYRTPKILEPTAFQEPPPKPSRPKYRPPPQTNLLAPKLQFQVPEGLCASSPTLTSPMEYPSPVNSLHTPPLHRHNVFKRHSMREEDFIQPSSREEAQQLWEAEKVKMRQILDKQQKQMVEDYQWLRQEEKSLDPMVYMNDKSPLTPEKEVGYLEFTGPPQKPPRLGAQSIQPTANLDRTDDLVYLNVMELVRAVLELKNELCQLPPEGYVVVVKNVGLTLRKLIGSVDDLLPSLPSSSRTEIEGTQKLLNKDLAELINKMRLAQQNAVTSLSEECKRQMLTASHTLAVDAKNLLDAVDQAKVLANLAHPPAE

T1 sequence (P35968 786-1356 limits assumed): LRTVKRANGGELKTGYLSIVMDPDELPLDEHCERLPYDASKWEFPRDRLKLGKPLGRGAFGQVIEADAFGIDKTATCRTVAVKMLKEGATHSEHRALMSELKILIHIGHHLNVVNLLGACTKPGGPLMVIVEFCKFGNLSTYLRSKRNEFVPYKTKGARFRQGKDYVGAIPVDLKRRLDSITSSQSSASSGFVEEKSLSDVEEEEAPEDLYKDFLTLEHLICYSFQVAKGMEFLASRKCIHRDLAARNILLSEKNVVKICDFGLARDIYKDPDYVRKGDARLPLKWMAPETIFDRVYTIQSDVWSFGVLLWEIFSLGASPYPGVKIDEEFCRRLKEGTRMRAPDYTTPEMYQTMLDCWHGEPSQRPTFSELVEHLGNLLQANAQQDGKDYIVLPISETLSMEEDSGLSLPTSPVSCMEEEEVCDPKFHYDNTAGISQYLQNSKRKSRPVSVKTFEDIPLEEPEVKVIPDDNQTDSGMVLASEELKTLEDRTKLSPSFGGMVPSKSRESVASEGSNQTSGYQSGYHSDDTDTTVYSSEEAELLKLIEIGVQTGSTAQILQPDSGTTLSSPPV
T2 sequence (P35968 20-1356): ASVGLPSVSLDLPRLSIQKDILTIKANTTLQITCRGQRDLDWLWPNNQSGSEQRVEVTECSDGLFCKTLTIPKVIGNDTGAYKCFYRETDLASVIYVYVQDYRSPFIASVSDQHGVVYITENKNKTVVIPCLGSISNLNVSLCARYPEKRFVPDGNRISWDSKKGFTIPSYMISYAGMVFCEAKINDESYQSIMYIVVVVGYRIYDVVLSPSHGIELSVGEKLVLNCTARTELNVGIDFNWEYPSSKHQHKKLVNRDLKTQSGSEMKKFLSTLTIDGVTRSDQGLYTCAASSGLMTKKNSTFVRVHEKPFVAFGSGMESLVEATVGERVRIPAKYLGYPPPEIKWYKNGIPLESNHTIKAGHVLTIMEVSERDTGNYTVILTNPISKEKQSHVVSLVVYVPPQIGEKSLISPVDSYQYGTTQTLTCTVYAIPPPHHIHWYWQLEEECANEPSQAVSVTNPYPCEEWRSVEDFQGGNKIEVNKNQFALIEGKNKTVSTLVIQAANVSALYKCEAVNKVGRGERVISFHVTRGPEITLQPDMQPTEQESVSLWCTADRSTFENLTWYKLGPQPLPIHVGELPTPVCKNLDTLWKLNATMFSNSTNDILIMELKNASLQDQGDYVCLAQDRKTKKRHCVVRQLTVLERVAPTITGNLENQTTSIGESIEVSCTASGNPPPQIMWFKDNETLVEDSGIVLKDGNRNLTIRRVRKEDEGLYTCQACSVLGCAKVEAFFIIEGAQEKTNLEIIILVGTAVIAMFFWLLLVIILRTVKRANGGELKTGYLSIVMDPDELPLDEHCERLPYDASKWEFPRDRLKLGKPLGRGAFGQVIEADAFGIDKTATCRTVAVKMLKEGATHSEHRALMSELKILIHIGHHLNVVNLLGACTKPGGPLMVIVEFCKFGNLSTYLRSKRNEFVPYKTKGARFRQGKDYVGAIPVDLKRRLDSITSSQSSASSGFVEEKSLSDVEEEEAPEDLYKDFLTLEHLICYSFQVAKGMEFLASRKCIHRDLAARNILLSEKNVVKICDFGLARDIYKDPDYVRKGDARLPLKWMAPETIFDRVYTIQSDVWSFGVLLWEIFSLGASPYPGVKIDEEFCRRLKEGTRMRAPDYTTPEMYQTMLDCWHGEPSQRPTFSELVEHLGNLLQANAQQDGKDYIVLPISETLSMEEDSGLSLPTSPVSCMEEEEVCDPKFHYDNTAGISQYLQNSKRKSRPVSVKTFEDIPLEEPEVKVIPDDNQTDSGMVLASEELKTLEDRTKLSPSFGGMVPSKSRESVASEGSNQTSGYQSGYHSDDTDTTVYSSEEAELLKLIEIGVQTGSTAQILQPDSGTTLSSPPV
Sequence of Myc-GyrB-FGFR fusion protein (P11362 478-767 limits assumed): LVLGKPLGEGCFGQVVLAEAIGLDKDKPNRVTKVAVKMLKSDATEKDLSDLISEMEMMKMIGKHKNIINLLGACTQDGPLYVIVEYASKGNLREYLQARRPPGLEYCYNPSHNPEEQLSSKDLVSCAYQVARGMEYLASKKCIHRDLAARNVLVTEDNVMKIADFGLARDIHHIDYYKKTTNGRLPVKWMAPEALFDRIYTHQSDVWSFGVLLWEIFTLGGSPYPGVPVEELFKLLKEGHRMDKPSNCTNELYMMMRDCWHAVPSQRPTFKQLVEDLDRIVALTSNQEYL

Structure (SMILES)	IC50 ([1]; read-out: bio fgfR1 IC50) [µM]	IC50 (flkGST) [µM]	IC50 (human flk-1) [µM]	IC50 (pyk2) [µM]	IC50 ([1]; bio fgfR1 IC50) [µM]
CCOC(=O)c1c(C)[nH]c(/C=C2\C(=O)Nc3ccc(Br)cc32)c1CCC(=O)O [Compound 114, 5-(5-Bromo-2-oxo-1,2-dihydroindol-3-ylidenemethyl)-4-(2-carboxyethyl)-2-methyl-1H-pyrrole-3-carboxylic acid ethyl ester]	4.26	3.31			
Cc1cc(CCC(=O)O)c(/C=C2\C(=O)Nc3ccc(Br)cc32)[nH]1 [Compound 116, 3-[2-(5-Bromo-2-oxo-1,2-dihydroindol-3-ylidenemethyl)-5-methyl-1H-pyrrol-3-yl]-propionic acid]	0.29	0.1			
COc1c(C(C)C)cc(/C=C2/C(=O)Nc3ccccc32)cc1C(C)C [Example 1, 3-(3,5-Diisopropyl-4-methoxybenzylidene)-1,3-dihydroindol-2-one]			> 50		
COc1c(C(C)C)cc(/C=C2/C(=O)Nc3ccc(Cl)cc32)cc1C(C)C [Example 2, 5-Chloro-3-(3,5-diisopropyl-4-methoxybenzylidene)-1,3-dihydroindol-2-one]			> 50		
O=C1Nc2ccc(N=Cc3cc4ccccc4[nH]3)cc2C1=Cc1cc2ccccc2[nH]1 [Example 171, 3-(1H-indol-2-ylmethylene)-5-[(1H-indol-2-ylmethylene)-amino]-1,3-dihydroindol-2-one]	> 20		20.4		
NS(=O)(=O)c1ccc2c(c1)/C(=C/c1c[nH]c3ccccc13)C(=O)N2 [Example 172, 3-(1H-Indol-3-ylmethylene)-2-oxo-2,3-dihydro-1H-indole-5-sulfonic acid amide]	0.28	10.5		14.8	
CNS(=O)(=O)c1ccc2c(c1)/C(=C/c1cc3ccccc3[nH]1)C(=O)N2 [Example 173, 3-(1H-Indol-2-ylmethylene)-2-oxo-2,3-dihydro-1H-indole-5-sulfonic acid methylamide]	0.29	11.1		9.8	
O=C1Nc2ccc(C(=O)O)cc2/C1=C/c1c[nH]c2ccccc12 [Example 174, 3-(1H-Indol-3-ylmethylene)-2-oxo-2,3-dihydro-1H-indole-5-carboxylic acid]	0.41	1.85		2.57	
O=C1Nc2ccc(C(=O)O)cc2/C1=C/c1ccc2[nH]ccc2c1 [Example 177, 3-(1H-Indol-5-ylmethylene)-2-oxo-2,3-dihydro-1H-indole-5-carboxylic acid]	1.6	1.34		> 100	
Nc1ccc2c(c1)/C(=C/c1ccc3[nH]ccc3c1)C(=O)N2 [Example 179, 5-Amino-3-(1H-indol-5-ylmethylene)-1,3-dihydro-indol-2-one]	4.52	1.84		> 100	
Cc1c(/C=C2\C(=O)Nc3ccc(N)cc32)[nH]c2ccccc12 [Example 180, 5-Amino-3-(3-methyl-1H-indol-2-ylmethylene)-1,3-dihydroindol-2-one]	5.42	1.11		< 0.78	
Cc1[nH]c2ccccc2c1/C=C1\C(=O)Nc2ccc(C(=O)O)cc21 [Example 182, 3-(2-Methyl-1H-indol-3-ylmethylene)-2-oxo-2,3-dihydro-1H-indole-5-carboxylic acid]	5.94	18.7		37.1	
Cc1[nH]c2ccccc2c1/C=C1\C(=O)Nc2ccc(N)cc21 [Example 187, 5-Amino-3-(2-methyl-1H-indol-3-ylmethylene)-1,3-dihydroindol-2-one]	13.8	> 20		75.8	
O=C(CCc1c(/C=C2\C(=O)Nc3ccccc32)[nH]c2c1CCCC2)NCCN1CCOCC1 [Example 202, N-(2-Morpholin-4-ylethyl)-3-[2-(2-oxo-1,2-dihydroindol-3-ylidenemethyl)-4,5,6,7-tetrahydro-1H-indol-3-yl]-propionamide]		2.54	0.63		
O=C(O)CCc1c(/C=C2\C(=O)Nc3ncccc32)[nH]c2c1CCCC2 [Example 203, 3-[2-(2-Oxo-1,2-dihydropyrrolo[2,3-b]pyridin-3-ylidenemethyl)-4,5,6,7-tetrahydro-1H-indol-3-yl]-propionic acid]	2.27		0.14		
COc1cccc(-c2ccc3c(c2)NC(=O)/C3=C\c2[nH]c3c(c2CCC(=O)O)CCCC3)c1 [Example 204, 3-{2-[6-(3-Methoxyphenyl)-2-oxo-1,2-dihydro-indol-3-ylidenemethyl]-4,5,6,7-tetrahydro-1H-indol-3-yl}-propionic acid]	0.59	0.07	0.36		
COc1ccc(-c2ccc3c(c2)NC(=O)/C3=C\c2[nH]c3c(c2CCC(=O)O)CCCC3)cc1 [Example 205, 3-{2-[6-(4-Methoxyphenyl)-2-oxo-1,2-dihydro-indol-3-ylidenemethyl]-4,5,6,7-tetrahydro-1H-indol-3-yl}-propionic acid]	2.02	0.44	0.52		
O=C(O)CCc1c(/C=C2\C(=O)Nc3cc(-c4ccccc4)ccc32)[nH]c2c1CCCC2 [Example 206, 3-[2-(2-oxo-6-phenyl-1,2-dihydroindol-3-ylidenemethyl)-4,5,6,7-tetrahydro-1H-indol-3-yl]-propionic acid]	1.18	0.06	6.08		
O=C(O)CCc1ccccc1/C=C1/C(=O)Nc2ccccc21 [Example 214, 3-[2-(2-Oxo-1,2-dihydroindol-3-ylidenemethyl)-phenyl]-propionic acid]	30.2		50.6		
Cc1c[nH]c(/C=C2\C(=O)Nc3ccccc32)c1CCC(=O)O [Example 215, 3-[4-Methyl-2-(2-oxo-1,2-dihydroindol-3-ylidenemethyl)-1H-pyrrol-3-yl]-propionic acid]		0.08		6.9	0.07
COc1ccc2c(c1)/C(=C/c1[nH]cc(C)c1CCC(=O)O)C(=O)N2 [Example 222, 3-[2-(5-Methoxy-2-oxo-1,2-dihydroindol-3-ylidenemethyl)-4-methyl-1H-pyrrol-3-yl]-propionic acid]		0.18	< 0.78		
COc1cccc(-c2ccc3c(c2)NC(=O)/C3=C\c2[nH]cc(C)c2CCC(=O)O)c1 [Example 223, 3-{2-[6-(3-Methoxyphenyl)-2-oxo-1,2-dihydro-indol-3-ylidenemethyl]-4-methyl-1H-pyrrol-3-yl}-propionic acid]	1.22	0.57	28.2		
CCOc1cccc(-c2ccc3c(c2)NC(=O)/C3=C\c2[nH]cc(C)c2CCC(=O)O)c1 [Example 224, 3-{2-[6-(3-Ethoxyphenyl)-2-oxo-1,2-dihydro-indol-3-ylidenemethyl]-4-methyl-1H-pyrrol-3-yl}-propionic acid]	4.24	0.67	1		
